Measurements published in the supplement of paper PMC10307832.

Legend:
Test in all cases: relative viability (nuclei count vs DMSO), 5 days (fraction); higher = more cells survive
MK-8033 + Olaparib = compound: Cn1cc(-c2cnc3ccc4ccc(CS(=O)(=O)NCc5ccccn5)cc4c(=O)c3c2)cn1 [MK-8033] + O=C(c1cc(Cc2n[nH]c(=O)c3ccccc23)ccc1F)N1CCN(C(=O)C2CC2)CC1 [Olaparib] (partner 8 µM)
Procedure, shortened: (§1)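 Dosing by pin tool came one day after lung cancer cell lines were seeded in 1536-well plates, using either one drug or a fixed anchor-drug dose plus five library-drug doses (not always all listed) in √10 steps. After 5 days, nuclei were counted on 4× images. Relative viability is treated-well nuclei count divided by vehicle-well nuclei count, and values are medians of duplicate plates.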

RU-SKI 43 + Dasatinib = compound: CC[C@@H](C)CNCC(=O)N1CCC2=C([C@@H]1COC3=CC=CC(=C3)C)C=CS2 [RU-SKI 43] + Cc1nc(Nc2ncc(C(=O)Nc3c(C)cccc3Cl)s2)cc(N2CCN(CCO)CC2)n1 [Dasatinib] (partner 0.075 µM)
Procedure, shortened: as §1

Irinotecan + AZD7762 = compound: CCc1c2c(nc3ccc(OC(=O)N4CCC(N5CCCCC5)CC4)cc13)-c1cc3c(c(=O)n1C2)COC(=O)[C@]3(O)CC [Irinotecan] + NC(=O)Nc1cc(-c2cccc(F)c2)sc1C(=O)N[C@H]1CCCNC1 [AZD7762] (partner 0.2 µM)
Procedure, shortened: as §1

RU-SKI 43 + AZD7762 = compound: CC[C@@H](C)CNCC(=O)N1CCC2=C([C@@H]1COC3=CC=CC(=C3)C)C=CS2 [RU-SKI 43] + NC(=O)Nc1cc(-c2cccc(F)c2)sc1C(=O)N[C@H]1CCCNC1 [AZD7762] (partner 0.2 µM)
Procedure, shortened: as §1

Row | Cell Line | relative viability (MK-8033 + Olaparib; first compound 0.02 µM) | relative viability (MK-8033 + Olaparib; first compound 0.06325 µM) | relative viability (MK-8033 + Olaparib; first compound 0.2 µM) | relative viability (MK-8033 + Olaparib; first compound 0.6325 µM) | relative viability (MK-8033 + Olaparib; first compound 2 µM) | relative viability (RU-SKI 43 + Dasatinib; first compound 0.1 µM) | relative viability (RU-SKI 43 + Dasatinib; first compound 0.3162 µM) | relative viability (RU-SKI 43 + Dasatinib; first compound 1 µM) | relative viability (RU-SKI 43 + Dasatinib; first compound 3.162 µM) | relative viability (RU-SKI 43 + Dasatinib; first compound 10 µM) | relative viability (Irinotecan + AZD7762; first compound 0.6325 µM) | relative viability (Irinotecan + AZD7762; first compound 2 µM) | relative viability (Irinotecan + AZD7762; first compound 6.325 µM) | relative viability (Irinotecan + AZD7762; first compound 20 µM) | relative viability (RU-SKI 43 + AZD7762; first compound 0.1 µM) | relative viability (RU-SKI 43 + AZD7762; first compound 0.3162 µM) | relative viability (RU-SKI 43 + AZD7762; first compound 1 µM) | relative viability (RU-SKI 43 + AZD7762; first compound 3.162 µM) | relative viability (RU-SKI 43 + AZD7762; first compound 10 µM)
1 | NCI-H2023 | 0.534 | 0.415 | 0.439 | 0.493 | 0.396 | 0.581 | 0.835 | 0.649 | 0.599 | 0.61 | – | – | – | – | – | – | – | – | –
2 | NCI-H1563 | – | – | – | – | – | 0.4 | 0.409 | 0.534 | 0.404 | 0.467 | – | – | – | – | – | – | – | – | –
3 | LCLC-103H | 0.731 | 0.778 | 0.737 | 0.729 | 0.815 | 0.502 | 0.481 | 0.64 | 0.453 | 0.49 | 0.458 | 0.682 | 0.497 | 0.4 | 0.832 | 0.804 | 0.788 | 0.821 | 0.763
4 | HCC-15 | 0.807 | 0.611 | 0.737 | 0.67 | 0.529 | 0.709 | 0.635 | 0.689 | 0.633 | 0.64 | 1.09 | 1.08 | 0.609 | 0.22 | 1.12 | 1.17 | 1.15 | 1.24 | 1.19
5 | NCI-H838 | 0.783 | 0.727 | 0.707 | 0.753 | 0.716 | 0.296 | 0.213 | 0.303 | 0.247 | 0.327 | 0.887 | 0.787 | 0.749 | 0.645 | 0.933 | 1.03 | 1 | 0.987 | 0.876
6 | NCI-H2009 | 0.716 | 0.683 | 0.632 | 0.712 | 0.707 | 0.314 | 0.296 | 0.324 | 0.289 | 0.276 | – | – | – | – | – | – | – | – | –
7 | NCI-H2228 | 0.79 | 0.568 | 0.52 | 0.865 | 0.619 | 0.74 | 0.658 | 0.486 | 0.555 | 0.425 | – | – | – | – | – | – | – | – | –
8 | NCI-H460 | 0.419 | 0.462 | 0.36 | 0.498 | 0.413 | 0.505 | 0.592 | 0.652 | 0.573 | 0.51 | – | 0.202 | 0.0963 | 0.0901 | 0.533 | 0.756 | 0.787 | 0.519 | 0.638
9 | NCI-H522 | 0.544 | 0.491 | 0.607 | 0.685 | 0.632 | 0.896 | 0.954 | 1.11 | 1.03 | 0.828 | 0.635 | 0.746 | 0.571 | 0.555 | 0.918 | 0.984 | 1.04 | 0.859 | 0.853
10 | NCI-H1703 | 0.385 | 0.304 | 0.524 | 0.336 | 0.598 | – | – | – | – | – | – | 0.124 | 0.128 | 0.181 | 0.177 | 0.137 | 0.134 | 0.11 | 0.12
11 | NCI-H1793 | 0.863 | – | 0.688 | 0.894 | 0.94 | 0.388 | 0.381 | 0.357 | 0.385 | 0.316 | – | 0.387 | 0.232 | 0.217 | 0.56 | 0.719 | 0.641 | 0.447 | 0.29
12 | NCI-H596 | 0.698 | 0.613 | 0.616 | 0.7 | 0.737 | 0.635 | 0.646 | 0.62 | 0.653 | 0.587 | 1.07 | 1.15 | 0.88 | 0.913 | 1.22 | 1.17 | 1.12 | 1.29 | 1.05
13 | NCI-H2347 | 0.564 | 0.573 | 0.535 | 0.617 | 0.575 | 0.34 | 0.23 | 0.364 | 0.203 | 0.293 | 0.609 | 0.654 | 0.48 | 0.372 | 0.732 | 0.74 | 0.812 | 0.614 | 0.642
14 | 201T | 0.873 | 0.824 | 0.832 | 0.82 | 0.822 | 0.565 | 0.547 | 0.624 | 0.627 | 0.56 | 0.456 | 0.416 | 0.345 | 0.266 | 0.628 | 0.603 | 0.602 | 0.531 | 0.567
15 | NCI-H1650 | 0.808 | 0.646 | 0.688 | 0.797 | 0.713 | 0.356 | 0.362 | 0.373 | 0.36 | 0.279 | – | – | – | – | – | – | – | – | –
16 | NCI-H1734 | 0.644 | 0.553 | 0.546 | 0.615 | 0.648 | 0.384 | 0.451 | 0.478 | 0.444 | 0.343 | – | 0.399 | 0.185 | 0.139 | 0.588 | 0.604 | 0.573 | 0.61 | 0.579
17 | SW 1573 | 0.537 | 0.479 | 0.418 | 0.567 | 0.393 | 0.558 | 0.816 | 0.497 | 0.491 | 0.311 | – | – | – | – | – | – | – | – | –
18 | SK-LU-1 | 0.435 | 0.471 | 0.426 | 0.497 | 0.394 | 0.163 | 0.172 | 0.172 | 0.194 | 0.159 | – | – | – | – | – | – | – | – | –
19 | NCI-H1648 | 0.841 | – | 0.748 | 0.765 | 0.574 | – | – | – | – | – | 0.562 | 0.768 | 0.434 | 0.466 | 0.502 | 0.626 | 0.656 | 0.694 | 0.628
20 | NCI-H1299 | 1.01 | 0.967 | 0.927 | 1 | 0.982 | – | – | – | – | – | – | – | – | – | – | – | – | – | –
21 | IA-LM | 0.749 | 0.764 | 0.786 | 0.756 | 0.767 | – | – | – | – | – | – | – | – | – | – | – | – | – | –
22 | COR-L23 | 0.348 | 0.328 | 0.378 | 0.367 | 0.311 | 0.461 | 0.491 | 0.55 | 0.445 | 0.443 | – | – | – | – | – | – | – | – | –
23 | A549 | 0.34 | 0.275 | 0.267 | 0.305 | 0.336 | – | – | – | – | – | – | – | – | – | – | – | – | – | –
24 | NCI-H661 | 0.726 | 0.679 | 0.774 | 0.71 | 0.675 | 0.923 | 0.964 | 0.931 | 0.83 | 0.843 | – | – | – | – | – | – | – | – | –
